Measurements as given in the kinase profiling compilation of Christmann-Franck et al. (2016).

Columns and labels:
Experiment in all cases: radiometric filter-binding kinase assay, Kinase HotSpot
Conditions in all cases: compound 0.5 µM; ATP 10 µM
SIK2 (human) = SIK2 (human) (UniProt Q9H0K1)
STK25 (human) = STK25 (human) (UniProt O00506)
LRRK2 (human) = LRRK2 (human) (UniProt Q5S007)
SRMS (human) = SRMS (human) (UniProt Q9H3Y6)
AXL (human) = AXL (human) (UniProt P30530)
LTK (human) = LTK (human) (UniProt P29376)
RPS6KA1 KD1 KD2 (human) = RPS6KA1 KD1 KD2 (human) (UniProt Q15418)
ZAP70 (human) = ZAP70 (human) (UniProt P43403)
FGFR4 (human) = FGFR4 (human) (UniProt P22455)
PAK3 (human) = PAK3 (human) (UniProt O75914)
ADRBK2 (human) = ADRBK2 (human) (UniProt P35626)
PAK4 (human) = PAK4 (human) (UniProt O96013)
CAMK1 (human) = CAMK1 (human) (UniProt Q14012)
PRKG2 (human) = PRKG2 (human) (UniProt Q13237)
WEE1 (human) = WEE1 (human) (UniProt P30291)
MAPK12 (human) = MAPK12 (human) (UniProt P53778)
MST1R (human) = MST1R (human) (UniProt Q04912)
ROCK2 (human) = ROCK2 (human) (UniProt O75116)
MAPKAPK5 (human) = MAPKAPK5 (human) (UniProt Q8IW41)
STK17A (human) = STK17A (human) (UniProt Q9UEE5)
GRK6 (human) = GRK6 (human) (UniProt P43250)
CDK6 CCND1 (human) = CDK6 CCND1 (human) (UniProt Q00534+P24385)
RET (human) = RET (human) (UniProt P07949)
RPS6KA3 KD1 KD2 (human) = RPS6KA3 KD1 KD2 (human) (UniProt P51812)
TAOK1 (human) = TAOK1 (human) (UniProt Q7L7X3)
MAP3K10 (human) = MAP3K10 (human) (UniProt Q02779)
PAK2 (human) = PAK2 (human) (UniProt Q13177)
MAP3K11 (human) = MAP3K11 (human) (UniProt Q16584)
NTRK1 (human) = NTRK1 (human) (UniProt P04629)
NEK7 (human) = NEK7 (human) (UniProt Q8TDX7)
CLK4 (human) = CLK4 (human) (UniProt Q9HAZ1)
NEK9 (human) = NEK9 (human) (UniProt Q8TD19)
PDPK1 (human) = PDPK1 (human) (UniProt O15530)
PRKCG (human) = PRKCG (human) (UniProt P05129)
PLK2 (human) = PLK2 (human) (UniProt Q9NYY3)
STK24 (human) = STK24 (human) (UniProt Q9Y6E0)
MARK2 (human) = MARK2 (human) (UniProt Q7KZI7)
NEK1 (human) = NEK1 (human) (UniProt Q96PY6)
CDK9 CCNT1 (human) = CDK9 CCNT1 (human) (UniProt P50750+O60563)
PLK1 (human) = PLK1 (human) (UniProt P53350)
CSNK1A1 (human) = CSNK1A1 (human) (UniProt P48729)
EPHB3 (human) = EPHB3 (human) (UniProt P54753)

AXL (human), sequence (P30530 whole entry, looked up): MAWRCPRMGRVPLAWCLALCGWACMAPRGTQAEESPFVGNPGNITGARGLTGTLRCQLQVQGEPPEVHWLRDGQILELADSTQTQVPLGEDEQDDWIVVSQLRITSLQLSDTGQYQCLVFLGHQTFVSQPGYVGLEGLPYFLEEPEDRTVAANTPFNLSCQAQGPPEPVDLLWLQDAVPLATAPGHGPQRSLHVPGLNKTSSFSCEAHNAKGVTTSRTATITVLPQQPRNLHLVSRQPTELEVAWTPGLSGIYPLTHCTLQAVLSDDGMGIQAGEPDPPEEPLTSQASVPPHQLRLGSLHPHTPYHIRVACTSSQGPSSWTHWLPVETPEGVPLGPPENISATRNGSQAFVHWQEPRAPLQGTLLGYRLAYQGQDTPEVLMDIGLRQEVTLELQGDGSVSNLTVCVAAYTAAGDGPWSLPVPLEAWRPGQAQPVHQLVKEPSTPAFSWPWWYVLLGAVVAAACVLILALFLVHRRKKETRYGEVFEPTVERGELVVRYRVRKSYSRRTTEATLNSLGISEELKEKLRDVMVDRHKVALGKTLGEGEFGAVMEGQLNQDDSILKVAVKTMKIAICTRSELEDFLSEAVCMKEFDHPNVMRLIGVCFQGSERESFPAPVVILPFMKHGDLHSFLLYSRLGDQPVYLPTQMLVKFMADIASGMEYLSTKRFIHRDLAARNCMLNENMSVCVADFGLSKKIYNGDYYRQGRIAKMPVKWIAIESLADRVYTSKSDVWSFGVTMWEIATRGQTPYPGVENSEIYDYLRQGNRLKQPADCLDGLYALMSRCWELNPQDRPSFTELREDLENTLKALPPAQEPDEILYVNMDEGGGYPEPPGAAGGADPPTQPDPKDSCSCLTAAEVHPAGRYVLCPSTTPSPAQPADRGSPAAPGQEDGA
FGFR4 (human), sequence (P22455 whole entry, looked up): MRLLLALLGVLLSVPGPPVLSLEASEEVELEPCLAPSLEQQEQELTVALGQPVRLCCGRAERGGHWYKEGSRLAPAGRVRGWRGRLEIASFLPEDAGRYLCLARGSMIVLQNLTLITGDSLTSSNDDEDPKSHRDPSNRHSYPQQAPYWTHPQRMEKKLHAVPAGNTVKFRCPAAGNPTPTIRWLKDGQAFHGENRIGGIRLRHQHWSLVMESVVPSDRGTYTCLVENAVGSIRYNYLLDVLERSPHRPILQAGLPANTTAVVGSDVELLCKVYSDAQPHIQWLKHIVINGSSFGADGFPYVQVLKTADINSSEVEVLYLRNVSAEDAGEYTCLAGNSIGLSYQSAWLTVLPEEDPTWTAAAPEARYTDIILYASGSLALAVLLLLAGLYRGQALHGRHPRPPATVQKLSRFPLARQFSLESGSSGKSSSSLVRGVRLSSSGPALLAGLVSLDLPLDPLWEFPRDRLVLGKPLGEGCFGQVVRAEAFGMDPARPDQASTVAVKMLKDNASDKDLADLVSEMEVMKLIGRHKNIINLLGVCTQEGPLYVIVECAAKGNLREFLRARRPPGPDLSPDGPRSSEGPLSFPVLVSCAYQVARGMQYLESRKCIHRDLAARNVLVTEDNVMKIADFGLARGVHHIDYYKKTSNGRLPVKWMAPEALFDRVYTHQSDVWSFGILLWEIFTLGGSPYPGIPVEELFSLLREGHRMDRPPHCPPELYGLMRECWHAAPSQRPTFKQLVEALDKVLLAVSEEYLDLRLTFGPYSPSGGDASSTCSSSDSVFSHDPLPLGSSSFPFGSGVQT
ADRBK2 (human), sequence (P35626 whole entry, looked up): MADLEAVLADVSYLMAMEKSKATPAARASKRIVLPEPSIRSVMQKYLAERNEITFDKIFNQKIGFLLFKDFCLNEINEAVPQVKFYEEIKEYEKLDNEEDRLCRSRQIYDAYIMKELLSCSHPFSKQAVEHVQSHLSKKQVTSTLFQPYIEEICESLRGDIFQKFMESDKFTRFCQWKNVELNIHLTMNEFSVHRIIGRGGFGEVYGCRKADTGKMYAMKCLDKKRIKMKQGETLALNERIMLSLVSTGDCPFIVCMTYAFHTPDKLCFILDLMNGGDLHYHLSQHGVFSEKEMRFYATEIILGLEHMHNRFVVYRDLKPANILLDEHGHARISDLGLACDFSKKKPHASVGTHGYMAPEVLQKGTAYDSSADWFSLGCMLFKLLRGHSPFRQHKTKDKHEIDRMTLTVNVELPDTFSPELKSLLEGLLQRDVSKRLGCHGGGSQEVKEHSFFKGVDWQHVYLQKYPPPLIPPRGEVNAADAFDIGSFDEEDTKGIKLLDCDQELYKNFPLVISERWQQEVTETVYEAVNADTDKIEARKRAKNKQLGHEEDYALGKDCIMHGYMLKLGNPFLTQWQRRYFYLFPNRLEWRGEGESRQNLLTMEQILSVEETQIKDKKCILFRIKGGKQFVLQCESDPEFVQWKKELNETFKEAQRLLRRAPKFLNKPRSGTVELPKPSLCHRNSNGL
MARK2 (human), sequence (Q7KZI7 whole entry, looked up): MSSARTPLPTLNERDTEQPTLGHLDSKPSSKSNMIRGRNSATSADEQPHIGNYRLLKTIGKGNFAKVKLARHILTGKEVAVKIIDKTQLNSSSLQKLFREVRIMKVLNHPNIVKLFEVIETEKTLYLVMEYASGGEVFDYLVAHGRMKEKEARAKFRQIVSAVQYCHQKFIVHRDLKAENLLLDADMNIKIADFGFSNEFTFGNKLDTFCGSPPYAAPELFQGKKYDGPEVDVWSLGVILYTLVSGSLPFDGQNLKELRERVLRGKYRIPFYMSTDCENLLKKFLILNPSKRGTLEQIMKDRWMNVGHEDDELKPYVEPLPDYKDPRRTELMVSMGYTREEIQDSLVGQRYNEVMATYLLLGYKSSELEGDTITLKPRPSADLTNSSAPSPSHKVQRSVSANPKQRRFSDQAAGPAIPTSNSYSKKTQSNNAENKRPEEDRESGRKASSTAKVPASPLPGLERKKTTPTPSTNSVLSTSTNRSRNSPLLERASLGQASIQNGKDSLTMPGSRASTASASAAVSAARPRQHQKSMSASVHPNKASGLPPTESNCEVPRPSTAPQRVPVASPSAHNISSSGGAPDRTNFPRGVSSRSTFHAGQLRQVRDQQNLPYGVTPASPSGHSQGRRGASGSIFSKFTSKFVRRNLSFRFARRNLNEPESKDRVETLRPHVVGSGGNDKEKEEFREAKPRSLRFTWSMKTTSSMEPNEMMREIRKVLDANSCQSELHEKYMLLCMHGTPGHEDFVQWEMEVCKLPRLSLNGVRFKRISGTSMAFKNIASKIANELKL
PAK4 (human), sequence (O96013 whole entry, looked up): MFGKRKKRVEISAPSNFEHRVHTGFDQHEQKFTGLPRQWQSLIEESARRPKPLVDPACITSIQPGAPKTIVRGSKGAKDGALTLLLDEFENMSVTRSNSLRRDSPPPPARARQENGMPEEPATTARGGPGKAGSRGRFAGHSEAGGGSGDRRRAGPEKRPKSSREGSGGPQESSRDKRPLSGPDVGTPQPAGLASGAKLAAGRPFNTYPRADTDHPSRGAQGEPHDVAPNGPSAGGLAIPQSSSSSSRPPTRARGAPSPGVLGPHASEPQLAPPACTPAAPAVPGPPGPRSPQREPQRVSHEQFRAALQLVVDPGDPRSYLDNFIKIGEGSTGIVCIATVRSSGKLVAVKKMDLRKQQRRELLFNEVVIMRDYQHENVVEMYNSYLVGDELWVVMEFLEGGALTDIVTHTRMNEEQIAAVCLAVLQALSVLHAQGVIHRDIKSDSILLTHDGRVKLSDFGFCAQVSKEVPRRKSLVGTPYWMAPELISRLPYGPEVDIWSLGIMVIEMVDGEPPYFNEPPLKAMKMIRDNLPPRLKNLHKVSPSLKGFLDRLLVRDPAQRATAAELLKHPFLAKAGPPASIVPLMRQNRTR
MAP3K10 (human), sequence (Q02779 whole entry, looked up): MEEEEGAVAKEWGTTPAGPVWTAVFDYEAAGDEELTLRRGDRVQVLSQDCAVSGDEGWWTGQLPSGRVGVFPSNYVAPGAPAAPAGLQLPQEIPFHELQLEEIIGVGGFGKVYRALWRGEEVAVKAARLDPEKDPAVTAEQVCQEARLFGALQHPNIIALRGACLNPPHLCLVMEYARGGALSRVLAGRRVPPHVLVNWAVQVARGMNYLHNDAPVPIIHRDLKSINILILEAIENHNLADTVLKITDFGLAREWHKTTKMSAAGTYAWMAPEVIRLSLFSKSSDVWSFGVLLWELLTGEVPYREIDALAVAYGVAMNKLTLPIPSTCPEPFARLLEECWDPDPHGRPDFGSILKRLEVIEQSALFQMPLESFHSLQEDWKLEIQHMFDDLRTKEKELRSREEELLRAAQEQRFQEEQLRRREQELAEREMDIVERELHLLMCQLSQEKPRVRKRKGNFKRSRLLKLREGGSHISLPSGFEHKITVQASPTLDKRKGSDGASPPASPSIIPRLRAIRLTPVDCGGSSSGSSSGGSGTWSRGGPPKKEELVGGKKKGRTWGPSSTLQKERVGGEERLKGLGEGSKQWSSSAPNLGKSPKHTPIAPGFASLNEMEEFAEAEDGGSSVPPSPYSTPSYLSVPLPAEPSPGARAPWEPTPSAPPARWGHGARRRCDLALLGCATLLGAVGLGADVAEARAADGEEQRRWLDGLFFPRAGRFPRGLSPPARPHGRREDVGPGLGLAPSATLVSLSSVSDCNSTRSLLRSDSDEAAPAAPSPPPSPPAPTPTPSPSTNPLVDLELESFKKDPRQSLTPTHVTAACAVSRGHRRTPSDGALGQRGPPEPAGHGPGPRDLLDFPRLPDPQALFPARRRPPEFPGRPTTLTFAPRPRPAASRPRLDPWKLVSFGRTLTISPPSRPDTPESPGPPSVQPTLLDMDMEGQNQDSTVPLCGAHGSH
CSNK1A1 (human), sequence (P48729 whole entry, looked up): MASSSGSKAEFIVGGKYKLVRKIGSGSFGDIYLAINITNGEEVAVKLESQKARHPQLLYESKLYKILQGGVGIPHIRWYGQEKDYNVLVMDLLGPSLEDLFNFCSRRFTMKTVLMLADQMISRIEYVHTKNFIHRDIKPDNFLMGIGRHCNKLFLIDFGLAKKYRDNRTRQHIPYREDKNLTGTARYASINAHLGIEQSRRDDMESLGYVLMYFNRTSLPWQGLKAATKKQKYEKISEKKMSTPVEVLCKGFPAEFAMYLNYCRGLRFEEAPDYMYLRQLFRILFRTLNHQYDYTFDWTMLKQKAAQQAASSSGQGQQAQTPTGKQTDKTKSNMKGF

COc1cc2ncnc(Nc3ccc(O)c(Br)c3)c2cc1OC
residual activity (SIK2 (human)): 92.2% | residual activity (STK25 (human)): 99.6% | residual activity (LRRK2 (human)): 82.7% | residual activity (SRMS (human)): 90.4% | residual activity (AXL (human)): 89.4% | residual activity (LTK (human)): 5.44% | residual activity (RPS6KA1 KD1 KD2 (human)): 78.2% | residual activity (ZAP70 (human)): 99.7% | residual activity (FGFR4 (human)): 103% | residual activity (PAK3 (human)): 94.2% | residual activity (ADRBK2 (human)): 103% | residual activity (PAK4 (human)): 95.7% | residual activity (CAMK1 (human)): 103% | residual activity (PRKG2 (human)): 84.1% | residual activity (WEE1 (human)): 92.5% | residual activity (MAPK12 (human)): 92.8% | residual activity (MST1R (human)): 101% | residual activity (ROCK2 (human)): 89.9% | residual activity (MAPKAPK5 (human)): 98.7% | residual activity (STK17A (human)): 72.3% | residual activity (GRK6 (human)): 104% | residual activity (CDK6 CCND1 (human)): 95.4% | residual activity (RET (human)): 21.4% | residual activity (RPS6KA3 KD1 KD2 (human)): 69.4% | residual activity (TAOK1 (human)): 93.3% | residual activity (MAP3K10 (human)): 98.2% | residual activity (PAK2 (human)): 90.6% | residual activity (MAP3K11 (human)): 83.7% | residual activity (NTRK1 (human)): 96.4% | residual activity (NEK7 (human)): 101% | residual activity (CLK4 (human)): 101% | residual activity (NEK9 (human)): 104% | residual activity (PDPK1 (human)): 96.6% | residual activity (PRKCG (human)): 94.1% | residual activity (PLK2 (human)): 104% | residual activity (STK24 (human)): 91.7% | residual activity (MARK2 (human)): 94.5% | residual activity (NEK1 (human)): 90.5% | residual activity (CDK9 CCNT1 (human)): 91.4% | residual activity (PLK1 (human)): 98.8% | residual activity (CSNK1A1 (human)): 89.6% | residual activity (EPHB3 (human)): 88.1%

Nc1ncnc2c1cnn2-c1ccccc1
residual activity (SIK2 (human)): 99.8% | residual activity (STK25 (human)): 93.2% | residual activity (LRRK2 (human)): 99.3% | residual activity (SRMS (human)): 104% | residual activity (AXL (human)): 110% | residual activity (LTK (human)): 96.8% | residual activity (RPS6KA1 KD1 KD2 (human)): 79.5% | residual activity (ZAP70 (human)): 91.5% | residual activity (FGFR4 (human)): 94.8% | residual activity (PAK3 (human)): 98.8% | residual activity (ADRBK2 (human)): 105% | residual activity (PAK4 (human)): 86.5% | residual activity (CAMK1 (human)): 97.5% | residual activity (PRKG2 (human)): 99.2% | residual activity (WEE1 (human)): 90% | residual activity (MAPK12 (human)): 90.6% | residual activity (MST1R (human)): 100% | residual activity (ROCK2 (human)): 83.2% | residual activity (MAPKAPK5 (human)): 87.1% | residual activity (STK17A (human)): 102% | residual activity (GRK6 (human)): 92.3% | residual activity (CDK6 CCND1 (human)): 94.7% | residual activity (RET (human)): 98.2% | residual activity (RPS6KA3 KD1 KD2 (human)): 95% | residual activity (TAOK1 (human)): 89.5% | residual activity (MAP3K10 (human)): 88.6% | residual activity (PAK2 (human)): 98.1% | residual activity (MAP3K11 (human)): 96% | residual activity (NTRK1 (human)): 96.1% | residual activity (NEK7 (human)): 106% | residual activity (CLK4 (human)): 76.7% | residual activity (NEK9 (human)): 110% | residual activity (PDPK1 (human)): 104% | residual activity (PRKCG (human)): 103% | residual activity (PLK2 (human)): 99.2% | residual activity (STK24 (human)): 96.3% | residual activity (MARK2 (human)): 95.3% | residual activity (NEK1 (human)): 62.4% | residual activity (CDK9 CCNT1 (human)): 109% | residual activity (PLK1 (human)): 98.9% | residual activity (CSNK1A1 (human)): 79.8% | residual activity (EPHB3 (human)): 93.5%

N#CCCc1ccc2c(c1)-c1[nH]c3ccc([N+](=O)[O-])cc3c1CC(=O)N2
residual activity (SIK2 (human)): 44.2% | residual activity (STK25 (human)): 91.1% | residual activity (LRRK2 (human)): 73.8% | residual activity (SRMS (human)): 78.6% | residual activity (AXL (human)): 95.5% | residual activity (LTK (human)): 80% | residual activity (RPS6KA1 KD1 KD2 (human)): 59.9% | residual activity (ZAP70 (human)): 106% | residual activity (FGFR4 (human)): 89.1% | residual activity (PAK3 (human)): 97.1% | residual activity (ADRBK2 (human)): 97.1% | residual activity (PAK4 (human)): 86.4% | residual activity (CAMK1 (human)): 96% | residual activity (PRKG2 (human)): 93.9% | residual activity (WEE1 (human)): 100% | residual activity (MAPK12 (human)): 98.9% | residual activity (MST1R (human)): 107% | residual activity (ROCK2 (human)): 28.6% | residual activity (MAPKAPK5 (human)): 94.3% | residual activity (STK17A (human)): 46.8% | residual activity (GRK6 (human)): 91.5% | residual activity (CDK6 CCND1 (human)): 6.79% | residual activity (RET (human)): 80.8% | residual activity (RPS6KA3 KD1 KD2 (human)): 28.6% | residual activity (TAOK1 (human)): 73.1% | residual activity (MAP3K10 (human)): 30% | residual activity (PAK2 (human)): 55.6% | residual activity (MAP3K11 (human)): 18.4% | residual activity (NTRK1 (human)): 115% | residual activity (NEK7 (human)): 87.4% | residual activity (CLK4 (human)): 77.1% | residual activity (NEK9 (human)): 103% | residual activity (PDPK1 (human)): 79.8% | residual activity (PRKCG (human)): 93.3% | residual activity (PLK2 (human)): 99% | residual activity (STK24 (human)): 57.7% | residual activity (MARK2 (human)): 65.5% | residual activity (NEK1 (human)): 132% | residual activity (CDK9 CCNT1 (human)): 28.6% | residual activity (PLK1 (human)): 101% | residual activity (CSNK1A1 (human)): 95.1% | residual activity (EPHB3 (human)): 102%
